Measured values published in patent US8889662B2, “Method to alter sex ratios in avian offspring” (University of Georgia Research Foundation, Inc., priority 2009, dated 2014).
Where “and” joins values, the source holds several entries; their conditions need not be identical. Equal entries are not always repeated.

Legend:
[1] = tested on: Hyline W-36 and Brown layer hens; assay: Example 3: ovulation and oviposition rates after injection, laying hens; assay type: in vivo, chicken; conditions: 1.5 mg subcutaneously
Experimental: Injection treatments were administered to hens subcutaneously in the back of the neck five hours prior to the predicted time of ovulation with one of the following treatments: 0.5 ml of control peanut oil (CONT) or 1.5 mg corticosterone dissolved in 0.5 ml of peanut oil (CORT). Ovulated follicles took 24 h to pass through the remainder of the reproductive tract and were collected at oviposition (FIG. 6). Eggs were also collected on the day prior to injections and were considered the unmanipulated group (UN). […] Eggs were incubated for 10 days at 37.5° C. and 58% relative humidity in a Natureform incubator.

[2] = chickens, previous work; cited from earlier work
[3] = tested on: white leghorn and brown hyline hens; assay: Example 1: offspring sex after a single maternal CORT injection, chickens; assay type: in vivo, chicken; conditions: 2 mg CORT about 19 h after a mid-sequence egg, p=0.002 vs controls, p<0.0001 vs non-injected
Experimental: This experiment was similar to the previous one in that a single injection of CORT was provided at the time of meiotic segregation and the sexes of the resulting eggs were quantified. Laying patterns of female white leghorn and brown hyline hens were monitored and timed. Females that were laying between 1000 and 1200 h EST were included in the experiment. Females were artificially inseminated using pooled semen from 5-10 roosters at two time points prior to treatment.
Approximately 19 h following the appearance of a mid-sequence egg, females received one of three treatments: (1) a high dose of CORT (2 mg in 0.5 ml peanut oil), (2) a control treatment (0.5 ml peanut oil), or (3) no injection treatment. The egg corresponding to the next ovulation event was labeled, collected, and incubated at 37° C. for a period of 7 days to allow for embryonic development. Embryos were separated and sexed using PCR based techniques as described above. The percentage of females producing male offspring in each group were calculated and compared using chi square analyses. […] CORT was quantified using a standard radioimmunoassay and CORT concentrations were log transformed and analyzed using an analysis of variance (ANOVA).

[4] = Testosterone concentrations after a pharmacological dose of CORT (Examples 1 and 2); assay type: in vivo, zebra finches; conditions: within 1-3 hours of administration
[5] = tested on: Hyline W-36 and Brown layer hens; assay: Example 3: offspring sex ratio after acute corticosterone injection five hours before ovulation, laying hens; assay type: in vivo, chicken
Experimental: Hyline W-36 and Brown layer hens were housed in individual layer cages in a single room, had ad libitum access to food and water, and maintained on a 14 h L:10 h D light schedule. Hens were artificially inseminated biweekly with pooled semen from 8 roosters to ensure egg fertilization. Hens were monitored throughout the day for egg-laying and eggs were collected manually every 2 h during peak-laying hours. Previous studies in laying hens have shown that ovulation occurs within 30 minutes of oviposition (Johnson, A. L. Reproduction in the female, in Sturkie's Avian Physiology. G. C. Whittow, Editor. 2000, Academic Press: New York, N.Y. p. 569-596); therefore, egg laying patterns can be used to predict the timing of ovulation.
Injection treatments were administered to hens subcutaneously in the back of the neck five hours prior to the predicted time of ovulation with one of the following treatments: 0.5 ml of control peanut oil (CONT) or 1.5 mg corticosterone dissolved in 0.5 ml of peanut oil (CORT). Ovulated follicles took 24 h to pass through the remainder of the reproductive tract and were collected at oviposition (FIG. 6). […]
Statistical Analysis. […] Plasma corticosterone concentrations were analyzed among treatment groups and time points using an ANOVA and differences among individual treatment groups were analyzed using Fisher's PLSD. […]

C[C@]12C[C@H](O)[C@H]3[C@@H](CCC4=CC(=O)CC[C@@]43C)[C@@H]1CC[C@@H]2C(=O)CO [corticosterone]
effect on ovulation or oviposition rates [1]: Neither the control nor the corticosterone treatment had an effect on ovulation or oviposition rates
duration of elevated CORT concentrations following injection [2]: approximately 90 minutes
likelihood of male embryos compared to controls and non-injected females [3]: significantly more likely to be male
testosterone concentrations after CORT [4]: testosterone concentrations increased significantly
males produced (offspring sex ratio) ([5]; 1.5 mg in 0.5 ml peanut oil subcutaneously five hours before ovulation, p=0.01 vs all hens the day before, p=0.72 vs control injection): ~83% and 82.6%
males produced after treatment compared to before treatment, same hens ([5]; 1.5 mg, target versus pre-target eggs, p=0.02): produced significantly more males
